According to patent US20260159536A1, “AKR1C3-ACTIVATED DNA ALKYLATING AGENT, AND MEDICAL APPLICATION THEREOF” (ASCENTAWITS PHARMACEUTICALS, LTD., priority 2021, published 2026):
Like-named read-outs stand apart in the source and are kept apart here.

How the values were obtained:
[1] = tested on: H460 cancer cells; test: H460 proliferation in the presence or absence of AKR1C3 inhibitor AST-3021 (Alamar Blue); type: cell-based, human; conditions: for IC50: Homo sapiens, NCI-H460, H460, 2 hours exposure
Procedure: (§1) The tested compound was then added. The compound was dissolved in 100% DMSO at 200 times of the desired final test concentration. When the medicament was added, the compound was further diluted to 4 times of the desired final test concentration by using the complete medium. 50 μL of aliquots of the compound with specific concentration were added to the microwells containing 150 μL of medium, and then the final medicament concentration was obtained. […] The medicament was then washed. […] After the incubation was finished, the Alamar Blue was used to analyze and quantify the living cells.

[2] = tested on: NCI-H1944; test: AKR1C3-dependent cytotoxicity, NSCLC cell line NCI-H1944; type: cell-based; conditions: Homo sapiens
Procedure: as §1

[3] = tested on: NCI-H2228; test: AKR1C3-dependent cytotoxicity, NSCLC cell line NCI-H2228; type: cell-based; conditions: Homo sapiens
Procedure: as §1

[4] = tested on: NCI-H1563; test: AKR1C3-dependent cytotoxicity, NSCLC cell line NCI-H1563; type: cell-based; conditions: Homo sapiens
Procedure: as §1

[5] = tested on: NCI-H1792; test: AKR1C3-dependent cytotoxicity, NSCLC cell line NCI-H1792; type: cell-based; conditions: Homo sapiens
Procedure: as §1

[6] = tested on: CAL12T; test: AKR1C3-dependent cytotoxicity, NSCLC cell line CAL12T; type: cell-based; conditions: Homo sapiens, CAL-12T
Procedure: as §1

[7] = tested on: NCIH2106; test: AKR1C3-dependent cytotoxicity, NSCLC cell line NCIH2106; type: cell-based
Procedure: as §1

[8] = tested on: HuPrime model GA6201 human gastric cancer; conditions: for Relative tumor volume (x ± S) / T/C (%) / TGI (%) / Tumor volume (x ± S): Day 38
Procedure: The test was divided into groups of the test drug Isocyclophosphamide 60 mg/kg group, the test drug AST-3424 5 mg/kg group, the test drug A compound 2.5 mg/kg and 5 mg/kg groups, and normal saline (pH 7.0-7.6) vehicle control group, a total of 5 groups, with 5 mice per group.
In the above dosing regimen, Isocyclophosphamide was designed based on the best dosing regimen with maximum safe dosage as recited in the document (Jessica D. Sun, Qian Liu, Dharmendra Ahluwalia, Damien J. Ferraro, Yan Wang, Don Jung, Mark D. Matteucci, and Charles P. Hart. Comparison of hypoxia-activated prodrug evofosfamide (TH-302) and ifosfamide in preclinical non-small cell lung cancer models [J]. Cancer Biology & Therapy, 2016, 17(4): 371-380).

[9] = tested on: HuPrime model LI6664 human liver cancer; test: In vivo pharmacodynamics, liver cancer LI6664 PDX model; set-up: species or system BALB/c nude mice; conditions: Day 28; for relative tumor inhibition rate TGI (%): QWx3
Procedure: Experiment Instruction: BALB/c nude mice were subcutaneously inoculated with HuPrime® model LI6664 tumor blocks to establish a subcutaneous transplantation tumor model of human liver cancer. […] Among them, 7.5% anhydrous ethanol+7.5% polyoxyethylene (35) castor oil+85% glucose injection D5W (pH 7.4) vehicle control group was administered by tail vein once a week for 3 consecutive weeks; test drug AST-3424 0.3 mg/kg and 1 mg/kg groups were administered by tail vein injection once a day for 5 consecutive days, followed by 2 days off, followed by 2 weeks off, and then continuously administered for 5 consecutive days; the test drug AST-3424 1.25 mg/kg group was administered by tail vein injection once a week for 2 consecutive weeks, followed by one week off, and then continuously administered for 2 consecutive weeks, Compound A 0.5 mg/kg, 1.5 mg/kg, and 4.5 mg/kg groups were administered by tail vein injection once a week for three consecutive weeks, followed by 1 week off, and then administered for three consecutive weeks. […] The efficacy was evaluated according to the relative tumor inhibition rate TGI (%), and the safety was evaluated according to the change in body weight and the death of the animals.

SMILES: O=[N+]([O-])c1ccc(C(OP(=O)(N2CC2)N2CC2)C(F)(F)F)cc1Oc1ccc(-c2ccc(F)cc2)c(F)c1 (racemic) [Compound A]
- IC50 ([1]; AST-3021 3 micromolar, read-out: IC50 With the addition of AST-3021): 2.14 µM
- IC50 ([1]; no AKR1C3 inhibitor, read-out: IC50 Without the addition of AST-3021): 0.00582 µM
- Fold ([1]; IC50 with AST-3021 over IC50 without): 367.13
- IC50 [2]: 0.0713 µM
- IC50 [3]: 0.0128 µM
- IC50 [4]: 0.454 µM
- IC50 [5]: 0.375 µM
- IC50 [6]: 8.08 µM
- IC50 [7]: 6.86 µM
- relative tumor inhibition rate (TGI) ([8]; 2.5 mg/kg and 5 mg/kg i.v. QWx2): more than 96%
- Relative tumor volume (x ± S) ([8]; 2.5 mg/kg i.v. QWx2): 0.29 ± 0.08
- T/C (%) ([8]; 2.5 mg/kg i.v. QWx2): 3.15%
- TGI (%) ([8]; 2.5 mg/kg i.v. QWx2): 96.85%
- Tumor volume (x ± S) ([8]; 2.5 mg/kg i.v. QWx2): 28.69 ± 8.2
- Tumor volume ([8]; 2.5 mg/kg i.v., 0 day): 94.61 mm^3
- Tumor volume ([8]; 2.5 mg/kg i.v., 3 days): 120.19 mm^3
- Tumor volume ([8]; 2.5 mg/kg i.v., 7 days): 118.33 mm^3
- Tumor volume ([8]; 2.5 mg/kg i.v., 10 days): 118.65 mm^3
- Tumor volume ([8]; 2.5 mg/kg i.v., 14 days): 96.08 mm^3
- Tumor volume ([8]; 2.5 mg/kg i.v., 17 days): 76.14 mm^3
- Tumor volume ([8]; 2.5 mg/kg i.v., 21 days): 71.72 mm^3
- Tumor volume ([8]; 2.5 mg/kg i.v., 24 days): 57.94 mm^3
- Tumor volume ([8]; 2.5 mg/kg i.v., 28 days): 45.51 mm^3
- Tumor volume ([8]; 2.5 mg/kg i.v., 31 days): 43.44 mm^3
- Tumor volume ([8]; 2.5 mg/kg i.v., 35 days): 32.04 mm^3
- Tumor volume ([8]; 2.5 mg/kg i.v., 38 days): 28.69 mm^3
- Tumor volume ([8]; 2.5 mg/kg i.v., 42 days): 23.49 mm^3
- Tumor volume ([8]; 2.5 mg/kg i.v., 45 days): 25.00 mm^3
- Tumor volume ([8]; 2.5 mg/kg i.v., 49 days): 17.72 mm^3
- Relative tumor volume (x ± S) ([8]; Compound A 5 mg/kg i.v. QWx2): 0.19 ± 0.08
- T/C (%) ([8]; Compound A 5 mg/kg i.v. QWx2): 2.04%
- TGI (%) ([8]; Compound A 5 mg/kg i.v. QWx2): 97.96%
- Tumor volume (x ± S) ([8]; Compound A 5 mg/kg i.v. QWx2): 19.97 ± 10.18
- Tumor volume ([8]; Compound A 5 mg/kg i.v., 0 day): 94.36 mm^3
- Tumor volume ([8]; Compound A 5 mg/kg i.v., 3 days): 118.42 mm^3
- Tumor volume ([8]; Compound A 5 mg/kg i.v., 7 days): 101.91 mm^3
- Tumor volume ([8]; Compound A 5 mg/kg i.v., 10 days): 97.17 mm^3
- Tumor volume ([8]; Compound A 5 mg/kg i.v., 14 days): 74.20 mm^3
- Tumor volume ([8]; Compound A 5 mg/kg i.v., 17 days): 59.77 mm^3
- Tumor volume ([8]; Compound A 5 mg/kg i.v., 21 days): 46.21 mm^3
- Tumor volume ([8]; Compound A 5 mg/kg i.v., 24 days): 44.03 mm^3
- Tumor volume ([8]; Compound A 5 mg/kg i.v., 28 days): 38.50 mm^3
- Tumor volume ([8]; Compound A 5 mg/kg i.v., 31 days): 35.92 mm^3
- Tumor volume ([8]; Compound A 5 mg/kg i.v., 35 days): 22.70 mm^3
- Tumor volume ([8]; Compound A 5 mg/kg i.v., 38 days): 19.97 mm^3
- Tumor volume ([8]; Compound A 5 mg/kg i.v., 42 days): 5.05 mm^3
- Tumor volume ([8]; Compound A 5 mg/kg i.v., 45 days): 11.14 mm^3
- Tumor volume ([8]; Compound A 5 mg/kg i.v., 49 days): 9.96 mm^3
- body weight change / toxic effects ([8]; GA6201 model, tested doses): no effect on the body weights
- relative tumor inhibition rate TGI (%) ([9]; 0.5 mg/kg i.v. QWx3, 1 week off): 34.07%
- relative tumor inhibition rate TGI (%) ([9]; 1.5 mg/kg i.v. QWx3, 1 week off): 66.57%
- relative tumor inhibition rate TGI (%) ([9]; 4.5 mg/kg i.v. QWx3, 1 week off): 77.05%
- T/C (%) ([9]; Compound A 0.5 mg/kg): 65.93%
- Relative tumor volume (x ± S) ([9]; Compound A 0.5 mg/kg, mean ± standard error): 8.51 ± 2.07
- Tumor volume (x ± S) ([9]; Compound A 0.5 mg/kg, mean ± standard error, in mm³ (unit assumed)): 920.46 ± 215.96
- T/C (%) ([9]; Compound A 1.5 mg/kg): 33.43%
